Read-outs that look alike come from different tables or passages of the source.
Tests used:
[1] = tested on: TCF/LEF luciferase Reporter in DLD1 cells; test: TCF reporter assay (DLD1 TCF/LEF luciferase reporter, Bright-Glo); assay type: cell-based; settings: read-out: DLD1 4% Abs IC50
Text: Those skilled in the art will appreciate that other suitable reagents may be utilized and various parameters may be adjusted.
DLD1 reporter cell line was generated by using TCF/LEF luciferase Reporter Lentivirus (BPS Bioscience Catalog #79787). Parental DLD1 cells (ATCC@ CCL-221) were transfected with the lentivirus and followed by 3-day puromycin selection. Single clone was selected for Reporter assay.
On Day 1, cultured cells in flasks that are no more than about 60-70% confluent were washed with PBS and typsinized in 3 mL/T75 until cells were free floating. Spin down cells for 5 minutes at 1100RPM. While cells spin, determine the number of plates (3 compounds per plate) needed. After spinning, aspirate the supernatant gently and add 10 mL media (RPMI+4% FBS), and re-suspend and mix the cells gently. Count the cells twice in the cell counter Countess and take average of both the counts, and determine how many cells are needed. After plating cells at 5000 cells/well, seal with aerseal film. 90 uL cells/well. Incubate at 37° C. overnight, tap gently to mix and don't stack plates.
On Day 2, compounds were added. Stock solution was 10 mM. Make the DMSO containing media by adding 36 uL DMSO to 10 mL of media. Make the dilution wells by transferring 100 uL DMSO+Media into rows B-F of a protein LoBind 96-well plate. Row G is empty. Add any extra DMSO+media to row H. Transfer 4 uL of stock solution to Row A. One compound per column. Add 196 uL media to Row A, no DMSO in the media. Concentration of Row A was 200 uM. Mix well and do a 6 pt, 1:2 serial dilution, mix ×10 per transfer and change tips before each transfer. Removed excess volume from final well (row F) and discard. Transfer 10 uL of the compound containing media to cells with a multichannel according to plate maps. Add 60 uL DMSO containing media to the DMSO wells. The edge wells were typically not used in the assay and could be ignored if needed or replaced with PBS, but there typically were liquids in the wells. Cover plates with breathable plate sealer and incubate overnight.
A 96-well plate may be utilized to prepare dilution series for up to 12 compounds, each with several concentrations (e.g., 200, 100, 50, 25, 12.5, 6.25 and 0 uM; can be utilized as 100× depending on final test concentrations).
0 uM is the DMSO control for the whole plate. Edge well filled with 90 uL cells+10 uL DMSO containing media.
On Day 3, luciferase levels were assessed using Bright-Glo (Promega). Equilibrate Bright-Glo to room temperature before addition. 7 mL of mixed Bright-Gbo per plate. Unused Bright-Glo could be store at −80° C. Reconstituted reagent can be stored for up to 1 month at −80° C., or after one freeze-thaw. When ready to read, remove plates from incubator and let sit at room temperature for 15 minutes. Typically stagger taking out plates if reading multiple plates before adding the Bright-Glo. Add 90 uL/well Bright-Glo and shake gently for 3 minutes. Read luminescence on GloMax immediately using ‘BrightGlo’ programs.
Cellular activity was assessed using CTG. Equilibrate CTG reagents to room temperature. Equilibrate plates to room temp, e.g. 15 min. Use same time length for all plates. Add CTG reagent, 25 uL if using undiluted, or 90 uL if diluted 1 to 4. Shake for 2 min to induce cell lysis. Allow plate to incubate at RT for 10 min to stabilize lumine sent signal. Read luminesence using program ‘CellTiter-Glo’. Use Prism to find the Absolute IC50 (AbsIC50=X[50]) of each compound.

[2] = molecular target: T1, beta-catenin/TCF4 engagement (Homo sapiens, UniProt P35222); test: Nano-BRET target engagement assay (B-cat-Halo & TCF4-Luc in HEK293 cells); assay type: cell-based; settings: read-out: NanoBRET Abs IC50
T1 construct: expressed in transfected cells; host or cells: HEK293
T1 sequence (P35222 1-781): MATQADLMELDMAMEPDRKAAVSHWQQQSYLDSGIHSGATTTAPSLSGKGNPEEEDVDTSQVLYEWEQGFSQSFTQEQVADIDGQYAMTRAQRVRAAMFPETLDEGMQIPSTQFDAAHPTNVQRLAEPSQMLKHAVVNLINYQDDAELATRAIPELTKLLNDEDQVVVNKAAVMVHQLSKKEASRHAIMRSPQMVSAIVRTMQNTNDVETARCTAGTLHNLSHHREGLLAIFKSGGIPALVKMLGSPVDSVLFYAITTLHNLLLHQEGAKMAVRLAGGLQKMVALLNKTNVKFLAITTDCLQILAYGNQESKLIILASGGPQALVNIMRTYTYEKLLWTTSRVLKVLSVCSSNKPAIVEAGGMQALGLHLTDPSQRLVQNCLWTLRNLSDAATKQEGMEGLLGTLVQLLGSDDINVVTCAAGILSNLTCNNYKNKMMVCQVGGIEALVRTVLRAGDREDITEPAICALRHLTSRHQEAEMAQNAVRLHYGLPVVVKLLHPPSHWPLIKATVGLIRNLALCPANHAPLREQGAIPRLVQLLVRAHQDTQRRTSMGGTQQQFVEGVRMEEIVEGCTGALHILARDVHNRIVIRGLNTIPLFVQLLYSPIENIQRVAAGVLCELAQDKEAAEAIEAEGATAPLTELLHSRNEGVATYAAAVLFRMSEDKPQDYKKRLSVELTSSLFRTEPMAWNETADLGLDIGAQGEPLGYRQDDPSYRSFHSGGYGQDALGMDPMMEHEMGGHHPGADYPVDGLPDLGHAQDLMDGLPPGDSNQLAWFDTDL

[3] = molecular target: T2, full-length beta-Catenin (Uniprot ID P35222) (Homo sapiens, UniProt P35222); test: Fluorescence polarization IC50 (beta-catenin / 5FAM-TCF4 10-53 competition); assay type: binding; settings: fluorescence polarization; read-out: beta-Catenin FP IC50
T2 construct: 10 nM full-length beta-Catenin (Uniprot ID P35222)
T2 sequence (P35222 1-781): T1 sequence (P35222 1-781)

[4] = DLD1 reporter, 4%, absolute IC50

IC50 [1, 4]	IC50 ([2]; absolute IC50)	IC50 [3]	IC50 ([1]; DLD1 4%)	IC50 [2]	Structure (SMILES)
5.7 µM	5.9 µM	0.027 µM			CC(=O)N1CCC[C@]12CC=CCCCC1(CCCC=CCCCOC(=O)N3CC[C@@](C(=O)N[C@@H](Cc4ccccc4C(F)(F)F)C(=O)N[C@@H](Cc4csc5ccccc45)C(=O)N[C@@H](C)C(N)=O)(C3)NC(=O)[C@H](CC(C)C)NC(=O)[C@H](Cc3ccccc3)NC(=O)[C@H](C)NC(=O)[C@H](CCC(N)=O)NC(=O)[C@H](Cn3cc(CC4(C(=O)O)CCCCC4)nn3)NC(=O)[C@H](CC(=O)O)NC1=O)NC(=O)[C@H](CC(C)(C)C)NC(=O)[C@H](CC(=O)O)NC2=O (stereo partly drawn) [I-2520, Ac-PL3-Asp-Npg-B5-Asp-[CH2CChCO2H]TriAzDap-Gln-Ala-Phe-Leu-PyrS2-2F3MeF-BztA-Ala-NH2]
2.2 µM	2.8 µM	0.017 µM			CC(=O)N1CCC[C@]12CC=CCCCC1(CCCC=CCCCOC(=O)N3CC[C@@](C(=O)N[C@@H](Cc4ccccc4C(F)(F)F)C(=O)N[C@@H](Cc4csc5ccccc45)C(=O)N[C@@H](CCC(N)=O)C(=O)N[C@@H](C)C(=O)N[C@@H](C)C(N)=O)(C3)NC(=O)[C@H](CC(C)C)NC(=O)[C@H](Cc3ccccc3)NC(=O)[C@H](C)NC(=O)[C@H](C)NC(=O)[C@H](Cc3cccc(C(=O)O)c3)NC(=O)[C@H](CC(=O)O)NC1=O)NC(=O)[C@H](CC(C)(C)C)NC(=O)[C@H](CC(=O)O)NC2=O (stereo partly drawn) [I-2399, Ac-PL3-Asp-Npg-B5-Asp-3COOHF-Ala-Ala-Phe-Leu-PyrS2-2F3MeF-BztA-Gln-Ala-Ala-NH2]
0.8 µM	2.5 µM	0.142 µM			CC(=O)N1CCC[C@]12CC=CCCCC1(CCCC=CCCCOC(=O)N3CC[C@@](C(=O)N[C@@H](Cc4ccccc4C(F)(F)F)C(=O)N[C@@H](Cc4csc5ccccc45)C(=O)N[C@@H](CCC(N)=O)C(=O)N[C@@H](Cc4ccccc4)C(=O)N[C@@H](C)C(N)=O)(C3)NC(=O)[C@H](CC(C)C)NC(=O)[C@H](Cc3ccccc3)NC(=O)[C@H](C)NC(=O)[C@H](C)NC(=O)[C@H](Cc3cccc(C(=O)O)c3)NC(=O)[C@H](CC(=O)O)NC1=O)NC(=O)[C@H](CC(C)(C)C)NC(=O)[C@H](CC(=O)O)NC2=O (stereo partly drawn) [I-2400, Ac-PL3-Asp-Npg-B5-Asp-3COOHF-Ala-Ala-Phe-Leu-PyrS2-2F3MeF-BztA-Gln-Phe-Ala-NH2]
0.7 µM	2.8 µM	0.0755 µM			CC(=O)N1CCC[C@]12CC=CCCCC1(CCCC=CCCCOC(=O)N3CC[C@@](C(=O)N[C@@H](Cc4ccccc4C(F)(F)F)C(=O)N[C@@H](Cc4csc5ccccc45)C(=O)N[C@@H](CCC(N)=O)C(=O)N[C@@H](CC(C)C)C(=O)NC(C)(C)C(N)=O)(C3)NC(=O)[C@H](CC(C)C)NC(=O)[C@H](Cc3ccccc3)NC(=O)[C@H](C)NC(=O)[C@H](C)NC(=O)[C@H](Cc3cccc(C(=O)O)c3)NC(=O)[C@H](CC(=O)O)NC1=O)NC(=O)[C@H](CC(C)(C)C)NC(=O)[C@H](CC(=O)O)NC2=O (stereo partly drawn) [I-2386, Ac-PL3-Asp-Npg-B5-Asp-3COOHF-Ala-Ala-Phe-Leu-PyrS2-2F3MeF-BztA-Gln-Leu-Aib-NH2]
		0.013 µM	1.8 µM	1.9 µM	CC(=O)N1CCC[C@]12CC=CCCCC1(CCCC=CCCCOC(=O)N3CC[C@@](C(=O)N[C@@H](Cc4ccsc4)C(=O)N[C@@H](Cc4csc5ccccc45)C(=O)N[C@@H](CCS(C)(=O)=O)C(N)=O)(C3)NC(=O)[C@H](CC(C)C)NC(=O)[C@H](Cc3ccccc3)NC(=O)[C@H](C)NC(=O)[C@H](C)NC(=O)[C@H](Cc3cccc(C(=O)O)c3)NC(=O)[C@H](CC(=O)O)NC1=O)NC(=O)[C@H](CC(C)(C)C)NC(=O)[C@H](CC(=O)O)NC2=O (stereo partly drawn) [I-2061, Ac-PL3-Asp-Npg-B5-Asp-3COOHF-Ala-Ala-Phe-Leu-PyrS2-3Thi-BztA-Met2O-NH2]
4 µM	21.4 µM	0.045 µM			CC(=O)N1CCC[C@]12CC=CCCCC1(CCCC=CCCCOC(=O)N3CC[C@@](C(=O)N[C@@H](Cc4ccsc4)C(=O)N[C@@H](Cc4csc5ccccc45)C(=O)N[C@H](CO)[C@@H](C)O)(C3)NC(=O)[C@H](CC(C)C)NC(=O)[C@H](Cc3ccccc3)NC(=O)[C@H](C)NC(=O)[C@H](C)NC(=O)[C@H](CC(=O)O)NC(=O)[C@H](CC(=O)O)NC1=O)NC(=O)[C@H](CC(C)(C)C)NC(=O)[C@H](CC(=O)O)NC2=O (stereo partly drawn) [I-1302, Ac-PL3-Asp-Npg-B5-Asp-Asp-Ala-Ala-Phe-Leu-PyrS2-3Thi-BztA-Thro1]
0.7 µM	8.2 µM	0.11 µM			CCCC[C@H](NC(=O)[C@H](CC(C)C)NC(=O)[C@H](CCC(N)=O)NC(=O)[C@H](Cc1csc2ccccc12)NC(=O)[C@H](Cc1ccccc1C(F)(F)F)NC(=O)[C@]12CCN(C1)C(=O)OCCCC=CCCCC1(CCCC=CC[C@]3(CCCN3C(C)=O)C(=O)N[C@@H](CC(=O)O)C(=O)N[C@@H](CC(C)(C)C)C(=O)N1)C(=O)N[C@@H](CC(=O)O)C(=O)N[C@@H](Cc1cccc(C(=O)O)c1)C(=O)N[C@@H](C)C(=O)N[C@@H](C)C(=O)N[C@@H](Cc1ccccc1)C(=O)N[C@@H](CC(C)C)C(=O)N2)C(N)=O (stereo partly drawn) [I-2391, Ac-PL3-Asp-Npg-B5-Asp-3COOHF-Ala-Ala-Phe-Leu-PyrS2-2F3MeF-BztA-Gln-Leu-nLeu-NH2]
1.4 µM	2.5 µM	0.01 µM			CC(=O)N1CCC[C@]12CC=CCCCC1(CCCC=CCCCOC(=O)N3CC[C@@](C(=O)N[C@@H](Cc4ccsc4)C(=O)N[C@@H](Cc4csc5ccccc45)C(=O)N[C@@H](CCC(=O)N(C)C)C(=O)N[C@@H](C)C(N)=O)(C3)NC(=O)[C@H](CC(C)C)NC(=O)[C@H](Cc3ccccc3)NC(=O)[C@H](C)NC(=O)[C@H](C)NC(=O)[C@H](CN(CC(=O)O)CC(F)(F)F)NC(=O)[C@H](CC(=O)O)NC1=O)NC(=O)[C@H](CC(C)(C)C)NC(=O)[C@H](CC(=O)O)NC2=O (stereo partly drawn) [I-2467, Ac-PL3-Asp-Npg-B5-Asp-TfeGA-Ala-Ala-Phe-Leu-PyrS2-3Thi-BztA-Me2Gln-Ala-NH2]

Reference: US20240116985A1, “STAPLED PEPTIDES AND METHODS THEREOF” (priority 2020, published 2024)
